Test results reported in PMC6106931 (Alzheimer's Research & Therapy, 2018).
Read-outs that look alike come from different tables or passages of the source.

Key:
[1] = human, in vivo, 4 weeks
Description: Safety and tolerability were assessed during the study by recording adverse events (AEs), clinically significant abnormalities, clinical laboratory tests, ECG, and vital signs and by performing physical, neurological, and MRI examinations. All enrolled participants were included in the safety analysis population.

[2] = parameters: method as in PMID 29067308; conditions: ALZ1002 Study; CV = 19%; cited from earlier work
[3] = Plasma and CSF pharmacokinetics, noncompartmental analysis, Study ALZ1008; format: in vivo, human; conditions: for Kp at 28 day: CSF / free plasma, observed plasma concentration, free fraction 6%, read-out: Ratio C28d (CSF)/free plasma, Mean (SD); for concentration at 28 day: CSF, read-out: C28d, CSF concentration at Day 28, Mean (SD); for AUC: read-out: Plasma AUCτ, Day 28, Mean (SD)
Description: Total apparent clearance for day 28 was calculated as dose/AUCτ.
The lower limit of quantification (LLOQ) was 1 ng/ml.

[4] = Japanese preclinical AD, 10 mg q.d.
[5] = Japanese preclinical AD, 50 mg q.d.

C[C@@]1(c2cc(NC(=O)c3ccc(C#N)cn3)ccc2F)C=CSC(N)=N1 [atabecestat]
TEAE incidence (genital herpes) [1]: 5.6%
oral clearance (CL/F), model-based estimate [2]: 10.5 L/h
day at or before which steady-state PK was reached ([3]; Japanese participants, based on mean predose concentrations): ≤ 8 days
DN AUCτ (dose normalization to 5 mg), Day 28, Mean (SD) [3, 4]: 555 (158) ng.h/mL
DN Cmax (dose normalization to 5 mg), Day 28, Mean (SD) [3, 4]: 53.6 (14.1) ng/mL
Plasma Tmax, Day 28, Median (Range) [3, 4]: 2.0 (1.0-3.0) h
DN AUCτ (dose normalization to 5 mg), Day 28, Mean (SD) [3, 5]: 473 (255) ng.h/mL
DN Cmax (dose normalization to 5 mg), Day 28, Mean (SD) [3, 5]: 51.6 (26.7) ng/mL
Plasma Cmax, Day 28, Mean (SD) [3, 5]: 516 (267) ng/mL
Plasma Tmax, Day 28, Median (Range) [3, 5]: 1.5 (1.0-2.0) h
Kp at 28 day ([3]; human, oral, 10 mg, Japanese preclinical AD, 10 mg q.d.): 0.65
Kp at 28 day ([3]; human, oral, 50 mg, Japanese preclinical AD, 50 mg q.d.): 0.83
concentration at 28 day ([3]; human, oral, Japanese preclinical AD, 10 mg q.d.): 3.29 ng/mL
concentration at 28 day ([3]; human, oral, Japanese preclinical AD, 50 mg q.d.): 19.1 ng/mL
AUC ([3]; human, plasma, oral, Japanese preclinical AD, 10 mg q.d.): 1110 ng·h/mL
Cmax ([3]; human, plasma, oral, Japanese preclinical AD, 10 mg q.d., read-out: Plasma Cmax, Day 28, Mean (SD)): 107 ng/mL
AUC ([3]; human, plasma, oral, Japanese preclinical AD, 50 mg q.d.): 4730 ng·h/mL
